Results reported in PMC9520775, “Everolimus pharmacokinetics and exposure-response relationship in Japanese patients with advanced breast cancer” (Frontiers in Pharmacology, 2022).
Read-outs that look alike come from different tables or passages of the source.

How the values were obtained:
[1] = test system: patients with advanced or metastatic breast cancer; experiment: Progression-free survival (Kaplan-Meier, log-rank); type: in vivo, human; conditions: for PFS: single patient
From the text: This was a prospective, observational PK study. Patients with advanced or metastatic breast cancer who received everolimus between November 2015 and November 2018 at Kobe City Medical Center General Hospital were enrolled in this study. The main inclusion criteria included the following: age ≥20 years; Eastern Cooperative Oncology Group (ECOG) performance status (PS): 0 or 1; and adequate bone marrow, liver, and renal function. The main exclusion criteria were interstitial pneumonia or pulmonary fibrosis, HBsAg positive, and psychiatric or psychological symptoms that made it difficult to participate in the study. Every participant provided written informed consent. This study was conducted in accordance with the Declaration of Helsinki and approved by the Institutional Review Board, under Approval Number zn151103.
Statistical differences in everolimus trough concentrations, doses and body weights between patient cohorts were assessed using the Mann–Whitney test. Progression-free survival (PFS) was assessed using the Kaplan-Meier method and the log-rank test. All statistical analyses were performed using GraphPad Prism version 7.03 (San Diego, CA). p < 0.05 was considered statistically significant.

patients = conditions: cited from earlier work
[2] = parameters: method as in de Wit et al. (2016); conditions: ref de Wit et al. (2016), cited from earlier work

CO[C@H]1C[C@@H]2CC[C@@H](C)[C@@](O)(O2)C(=O)C(=O)N2CCCC[C@H]2C(=O)O[C@H]([C@H](C)C[C@@H]2CC[C@@H](OCCO)[C@H](OC)C2)CC(=O)[C@H](C)/C=C(\C)[C@@H](O)[C@@H](OC)C(=O)[C@H](C)C[C@H](C)/C=C/C=C/C=C/1C [everolimus]
PFS ([1]; case Figure 3A): 8.5 months | PFS ([1]; case Figure 3B): 13.8 months | trough concentration to which adjusting may significantly prolong PFS ([1]; discussion statement): 10 to 20 ng/mL | trough concentration group with significantly longer PFS ([1]; groups <10 (n = 9), 10–20 (n = 6), >20 ng/ml (n = 3), log-rank p = 0.0078): 10 to 20 ng/mL | number of patients with PFS more than 8.5 months ([1]; of 18 patients): 14 | PFS, range ([1]; study population, n = 18): 1.7–55.8 months | median PFS ([1]; study population, n = 18, with exemestane): 13.7 months | incidence of stomatitis (patients; Japanese breast cancer patients, ref BOLERO-2 study): 88% | proportion of patients who required a second dose reduction to 2.5 mg daily (patients; clinical study in Spain (6/90), ref Pascual et al., 2017): 7% | proportion of patients who required a dose reduction to 5 mg daily (patients; clinical study in Spain (43/90), ref Pascual et al., 2017): 48% | incidence of stomatitis (patients; patients with breast cancer, ref Alexopoulos et al., 2022, Ruíz-Falcó Rojas et al., Tedesco-Silva et al.): 20%–50% | incidence of stomatitis (patients; renal transplant or tuberous sclerosis complex, ref Alexopoulos et al., 2022, Ruíz-Falcó Rojas et al., Tedesco-Silva et al.): approximately 10% | absorption rate constant (Ka) ([2]; fixed for all analyses): 0.643 h⁻¹ | clearance (CL), population prior ([2]; two-compartment model, patients with thyroid cancer): 20.3 L/h
